Source: patent US6514942B1, “Methods and compositions for stimulating T-lymphocytes” (The Board of Regents, The University of Texas System, priority 1995, dated 2003)
Entries after “also recorded” stand apart in the source; their conditions may differ.

Legend:
[1] = tested on: C1R:A2 cells; test: Ag specificity of the 41.CD8+ CTL line on peptide-pulsed targets; format: cell-based, human; conditions: peptide-pulsed C1R:A2, E:T 10:1
Experimental: FIG. 2A. Ag specificity of the 41.CD8^+ CTL line. C1R:A2 cells were pre-pulsed with either HER-2 peptides or control MUC-1 peptides before being incubated with effectors. The effector to target ratio was 10:1. C1R:A1 and C1R:A3 targets were pre-pulsed with the same peptides in the same conditions as C1R:A2 cells. Results for C1R:A1 and C1R:A3 show the difference between specific lysis of targets preincubated with peptides and control C1R:A1 and C1R:A3 targets. Specific lysis of control C1R:A1 and C1R:A3 cells was less than 10% at the same E:T ratio. Shown in FIG. 2A are results after 4 hrs' incubation.
(§1) Tumor cells and fibroblasts were labeled with 200 μCi of ^51Cr (Na^51CrO4; Amersham, Arlington Heights, Ill.) for 90 min at 37° C. (Ioannides et al., 1991). Lymphoblastoid cells and HLA-A2 transfectants were labeled overnight in RPMI-FCS, then washed three times and incubated with effector cells in RPMI-FCS in an incubator with 5%. CO2 (Bednarek et al., 1991; Gammon et al., 1992). When peptide recognition was determined, targets were incubated with 25 μM of peptides overnight during ^51Cr labeling or with 10 μM peptide for 2 h at 37° C. in RPMI-FCS then washed three times before being incubated with effector cells. Separate controls for spontaneous and total lysis were made for each peptide-pulsed target (Ioannides et al., 1991; Bednarek et al., 1991; Gammon et al., 1992). After 4-5 h, 100 μl of supernatant was collected and counted. To determine maximum lysis in 20-h assays, plates were left undisturbed in the incubator and the supernatant was collected after overnight incubation. For cold target inhibition studies, C1R:A2 cells were preincubated with HER-2 or control peptides overnight, then washed and admixed with ^51Cr-labeled targets at 2:1 and 6:1 (cold:hot targets) ratios. Percentage lysis was calculated from the formula: 100×[(E−S)/(T−S)], where E is experimental release, S is release in the absence of CTL, and T is release in 2 M HCl.
These cultures were propagated and expanded by periodic cycles of restimulation with peptide-pulsed fresh autologous PBMC as antigen-presenting cells. After the fourth stimulation cells were gradually adapted to growth in RPMI-FCS by replacing 25% of the culture medium every 3 days with RPMI-FCS over a period of 2 weeks. CD3^+CD8^+CD4^− cells were isolated from bulk CTL cultures by positive selection on anti-CD8 mAb-coated culture flasks (AIS Micro CELLector, Applied Immune Sciences, Menlo Park, Calif.) as described (Letessier et al., 1991). Isolated CD8^+ cells were restimulated with HER-2 peptide-pulsed PBMC, either autologous or in some instances allogeneic that matched only HLA-A2 with the responding cells. […]

[2] = tested on: OVA-16 (HLA-A2+, HER-2high) ovarian tumor; test: Cold target inhibition of OVA-16 lysis by 41.CD8+ CTL with peptide-pulsed C1R:A2 cells; format: cell-based, human; conditions: cold:hot 2:1, E:T 10:1, 4- and 20-h assays
Experimental: FIG. 4A. Target specificity of the 41.CD8^+ CTL were tested for the ability to lyse 5^1Cr-labeled OVA-16 at an E:T ratio of 10:1. C1R:A2 cells (A2.1) were incubated with synthetic peptides (D125, C43, C85), washed, and used in cold target inhibition studies at a cold:hot ratio of 2:1. Cytotoxicity studies were performed for 5 hr. Results represent the mean of three determinations. The variability between samples was less than 10%. The differences between determination are statistically significant (P<0.03) as determined by Student's t test. Percentage inhibition is indicated in parentheses.
FIG. 4B. Target specificity of the 41.CD8^+ CTL were tested for the ability to lyse ^51Cr-labeled OVA-16 at an E:T ratio of 10:1. C1R:A2 cells (A2.1) were incubated with synthetic peptides (D125, C43, C85), washed, and used in cold target inhibition studies at a cold:hot ratio of 2:1. Cytotoxicity studies were performed for 20 hr. Results represent the mean of three determinations. The variability between samples was less than 10%. The differences between determination are statistically significant (P<0.03) as determined by Student's t test. Percentage inhibition is indicated in parentheses.
as §1
To confirm that the 41.CD8^+ CTL line recognizes epitopes on HER-2^high tumors contained on peptides used for stimulation, cold target inhibition studies were performed. […]

Sequence	recognition by 41.CD8+ CTL line [1]	inhibition of tumor lysis by peptide-pulsed cold targets [2]
RFRELVSEFSRMAR [Peptide C43, HER-2:968-981 14mer peptide]	recognized	inhibited the lysis of the OVA-16 tumor; also recorded: inhibit HER-2^high tumor lysis
ELVSEFSRV [Peptide C84, HER-2:971-979 analog, Met(P9) substituted by Val]	recognized	inhibit HER-2^high tumor lysis; also recorded: specifically inhibit tumor lysis
